We go through 21 compounds from patent US12258342B2, “Class of DNA gyrase and/or topoisomerase IV inhibitors with activity against gram-positive and gram-negative bacteria” (Univerza v Ljubljani, priority 2018, dated 2025).

The IC50 is the concentration at which inhibition is half-maximal. The low end stands for greater potency, the high end for weaker potency.

The target of one assay is E. coli DNA gyrase (Escherichia coli (strain K12), UniProt P0AES6). Nature of the assay: DNA gyrase inhibition assay (Inspiralis, streptavidin-coated plates). The class given is biochemical. How it is done:
Inhibitory activities for compounds of the present invention were determined on E. coli and S. aureus DNA gyrase and topoisomerase IV in an assay from Inspiralis on streptavidin-coated 96-well microtiter plates from Thermo scientific Pierce. […] After washing off the unbound oligonucleotide, the enzyme test was performed. […] Reaction solutions were incubated at 37° C. for 30 min. After that, the TF buffer (50 mM NaOAc with pH 5.0, 50 mM NaCl and 50 mM MgCl2) was added to terminate the enzymatic reaction. After additional incubation for 30 min at rt, during which biotin-oligonucleotide-plasmid triplex was formed, the unbound plasmid was washed off using TF buffer and SybrGOLD in T10 buffer (10 mM Tris HCl with pH 8.0 and 1 mM EDTA) was added. […] GraphPad Prism 6.0 software was used to calculate the IC50 values. The result is given as the average value of three independent measurements. […] Chemoth.

A further assay has as its system E. faecium ATCC 35667. Description: Microbroth dilution MIC (CLSI). To be noted: Enterococcus faecium, ATCC35667, read-out: MIC (μg/mL) E. faecium ATCC 35667. In general terms: Dilution methods test growth across graded concentrations, often in twofold steps.
The next assay has as its system E. faecalis ATCC 29212. Nature of the assay: Microbroth dilution MIC (CLSI). The conditions noted are these: Enterococcus faecalis, ATCC29212, read-out: MIC (μg/mL) E. faecalis ATCC 29212.
Another assay concerns E. coli ATCC 25922. Nature of the assay: Microbroth dilution MIC (CLSI). To be noted: Escherichia coli, ATCC25922, read-out: MIC (μg/mL) E. coli ATCC 25922.
Another assay concerns S. aureus ATCC 29213. Nature of the assay: Microbroth dilution MIC (CLSI). To be noted: Staphylococcus aureus, ATCC29213, read-out: MIC (μg/mL) S. aureus ATCC 29213.

Each structure is given as a SMILES string. Values after ≈ are worked out from the molar mass of the structure shown. Bounds are passed on as bounds.

On E. coli DNA gyrase, `O=C(O)c1ccc2nc(NC(=O)c3cc(Br)c(Br)[nH]3)sc2c1` [Example 2, 2-(4,5-dibromo-1H-pyrrole-2-carboxamido)benzo[d]thiazole-6-carboxylic acid] displayed an IC50 of 12 ± 7 nM. Further, the MIC is 5.56 µg/mL (≈ 12.5 µM) with E. faecium ATCC 35667, 2.78 µg/mL (≈ 6.25 µM) with E. faecalis ATCC 29212, over 64 µg/mL in the assay with E. coli ATCC 25922 and over 64 µg/mL in the assay with S. aureus ATCC 29213.

The compound `O=C(O)c1ccc2nc(NC(=O)c3cc(Cl)c(Cl)[nH]3)sc2c1` [Example 3, 2-(4,5-dichloro-1H-pyrrole-2-carboxamido)benzo[d]thiazole-6-carboxylic acid] yielded a 50% inhibitory concentration (IC50) against E. coli DNA gyrase of 19 ± 1 nM. The MIC with E. faecium ATCC 35667 was 17.8 µg/mL (≈ 50 µM); in the assay with E. faecalis ATCC 29212, 8.9 µg/mL (≈ 25 µM); in the assay on E. coli ATCC 25922 it was over 64 µg/mL; with S. aureus ATCC 29213, over 64 µg/mL.

In the case of `Cc1[nH]c(C(=O)Nc2nc3cc(C(=O)O)ccc3s2)c(Cl)c1Cl` [Example 4, 2-(3,4-dichloro-5-methyl-1H-pyrrole-2-carboxamido)benzo[d]thiazole-5-carboxylic acid], 830 ± 150 nM corresponded to half-maximal inhibition against E. coli DNA gyrase (IC50). The MIC with E. faecium ATCC 35667, in the assay on E. faecalis ATCC 29212, in the assay on E. coli ATCC 25922 and in the assay on S. aureus ATCC 29213 was over 64 µg/mL each time.

Turning to `Cc1[nH]c(C(=O)Nc2nc3c(F)cc(C(=O)O)cc3s2)c(Cl)c1Cl` [Example 5, 2-(3,4-dichloro-5-methyl-1H-pyrrole-2-carboxamido)-4-fluorobenzo[d]thiazole-6-carboxylic acid], the half-inhibitory concentration (IC50) against E. coli DNA gyrase was under 5 nM. Also, the MIC in the assay with E. faecium ATCC 35667 amounted to 0.61 µg/mL (≈ 1.57 µM); in the assay with E. faecalis ATCC 29212 it was 0.0625 µg/mL (≈ 0.161 µM); in the assay on E. coli ATCC 25922, 16 µg/mL (≈ 41.2 µM); in the assay on S. aureus ATCC 29213 it was 1 µg/mL (≈ 2.58 µM).

On E. coli DNA gyrase, `O=C(O)c1cc(O)c2nc(NC(=O)c3cc(Br)c(Br)[nH]3)sc2c1` [Example 6, 2-(4,5-dibromo-1H-pyrrole-2-carboxamido)-4-hydroxybenzo[d]thiazole-6-carboxylic acid] came in with an IC50 of 46 ± 33 nM. In addition, the MIC was over 64 µg/mL in the assay on E. faecium ATCC 35667, 32 µg/mL (≈ 69.4 µM) in the assay on E. faecalis ATCC 29212, over 64 µg/mL in the assay on E. coli ATCC 25922 and over 64 µg/mL in the assay with S. aureus ATCC 29213.

The compound `Cc1[nH]c(C(=O)Nc2nc3c(OCCN4CCOCC4)cc(C(=O)NCC#N)cc3s2)c(Cl)c1Cl.Cl` [Example 25, 4-(2-((6-((cyanomethyl)carbamoyl)-2-(3,4-dichloro-5-methyl-1H-pyrrole-2-carboxamido)benzo[d]thiazol-4-yl)oxy)ethyl)morpholin-4-ium chloride] yielded a half-maximal inhibitory concentration (IC50) against E. coli DNA gyrase of under 5 nM. Also, the MIC in the assay with E. faecalis ATCC 29212, in the assay with E. coli ATCC 25922 and in the assay with S. aureus ATCC 29213 was over 64 µg/mL in each case.

Compound `Cc1[nH]c(C(=O)Nc2nc3ccc(C(=O)NCC#N)cc3s2)c(Cl)c1Cl` [Example 26, N-(cyanomethyl)-2-(3,4-dichloro-5-methyl-1H-pyrrole-2-carboxamido)benzo[d]thiazole-6-carboxamide] returned an IC50 on E. coli DNA gyrase of 16 ± 4 nM. The MIC in the assay with E. faecalis ATCC 29212, in the assay with E. coli ATCC 25922 and in the assay on S. aureus ATCC 29213 was over 64 µg/mL each time.

Regarding `Cc1[nH]c(C(=O)Nc2nc3c(OCc4ccccc4)cc(C(=O)NCC#N)cc3s2)c(Cl)c1Cl` [Example 27, 4-(benzyloxy)-N-(cyanomethyl)-2-(3,4-dichloro-5-methyl-1H-pyrrole-2-carboxamido)benzo[d]thiazole-6-carboxamide], the IC50 against E. coli DNA gyrase stood at 5.4 ± 2 nM. The MIC in the assay with E. faecalis ATCC 29212 is 16 µg/mL (≈ 31.1 µM); with E. coli ATCC 25922, over 64 µg/mL; in the assay on S. aureus ATCC 29213, 4 µg/mL (≈ 7.78 µM).

In turn, `Cc1[nH]c(C(=O)Nc2nc3c(OCc4ccccc4)cc(C(N)=O)cc3s2)c(Cl)c1Cl` [Example 28, 4-(benzyloxy)-2-(3,4-dichloro-5-methyl-1H-pyrrole-2-carboxamido)benzo[d]thiazole-6-carboxamide] registered a half-inhibitory concentration (IC50) at E. coli DNA gyrase of 11 ± 2 nM. Further, the MIC with E. faecalis ATCC 29212, in the assay with E. coli ATCC 25922 and with S. aureus ATCC 29213 was over 64 µg/mL throughout.

As to `Cc1[nH]c(C(=O)Nc2nc3c(OCc4ccccc4)cc(-c4nnn[nH]4)cc3s2)c(Cl)c1Cl` [Example 29, N-(4-(benzyloxy)-6-(1H-tetrazol-5-yl)benzo[d]thiazol-2-yl)-3,4-dichloro-5-methyl-1H-pyrrole-2-carboxamide], the MIC in the assay on E. faecalis ATCC 29212 was 0.125 µg/mL (≈ 0.25 µM); in the assay with E. coli ATCC 25922, over 64 µg/mL; in the assay with S. aureus ATCC 29213 it was 4 µg/mL (≈ 7.99 µM).

As for `COC(=O)c1cc(N2CC[C@H](NC(=O)OC(C)(C)C)C2)c2nc(NC(=O)c3[nH]c(C)c(Cl)c3Cl)sc2c1` [Example 33, methyl (S)-4-(3-((tert-butoxycarbonyl)amino)pyrrolidin-1-yl)-2-(3,4-dichloro-5-methyl-1H-pyrrole-2-carboxamido)benzo[d]thiazole-6-carboxylate], the IC50 on E. coli DNA gyrase is over 10000 nM. Also, the MIC with E. faecalis ATCC 29212, with E. coli ATCC 25922 and in the assay on S. aureus ATCC 29213 was at least 32 µg/mL in each case.

Compound `COC(=O)c1cc(N2CC[C@H](N)C2)c2nc(NC(=O)c3[nH]c(C)c(Cl)c3Cl)sc2c1.Cl` [Example 34, (S)-1-(2-(3,4-dichloro-5-methyl-1H-pyrrole-2-carboxamido)-6-(methoxycarbonyl)benzo[d]thiazol-4-yl)pyrrolidin-3-aminium chloride] came in with an IC50 against E. coli DNA gyrase of 48 ± 9 nM. For the same compound, the MIC in the assay on E. faecalis ATCC 29212, in the assay with E. coli ATCC 25922 and with S. aureus ATCC 29213 was at least 32 µg/mL throughout.

Compound `Cc1[nH]c(C(=O)Nc2nc3c(N4CC[C@H](NC(=O)OC(C)(C)C)C4)cc(C(=O)O)cc3s2)c(Cl)c1Cl` [Example 35, (S)-4-(3-((tert-butoxycarbonyl)amino)pyrrolidin-1-yl)-2-(3,4-dichloro-5-methyl-1H-pyrrole-2-carboxamido)benzo[d]thiazole-6-carboxylic acid] came in with a half-inhibitory concentration (IC50) at E. coli DNA gyrase of under 5 nM. In addition, the MIC was 0.0312 µg/mL (≈ 0.0564 µM) in the assay with E. faecalis ATCC 29212, at least 32 µg/mL in the assay with E. coli ATCC 25922 and 0.25 µg/mL (≈ 0.451 µM) with S. aureus ATCC 29213.

Consider `Cc1[nH]c(C(=O)Nc2nc3c(N4CC[C@H](N)C4)cc(C(=O)O)cc3s2)c(Cl)c1Cl.Cl` [Example 36, (S)-1-(6-carboxy-2-(3,4-dichloro-5-methyl-1H-pyrrole-2-carboxamido)benzo[d]thiazol-4-yl)pyrrolidin-3-aminium chloride], for which the IC50 at E. coli DNA gyrase was under 5 nM. Moreover, the figures for the MIC in the assay with E. faecalis ATCC 29212, in the assay with E. coli ATCC 25922 and with S. aureus ATCC 29213 were 0.5 µg/mL, at least 32 µg/mL and 4 µg/mL, respectively.

In the case of `O=C(O)c1cc(OCc2cc(=O)c(O)c[nH]2)c2nc(NC(=O)c3cc(Br)c(Br)[nH]3)sc2c1` [Example 38, 2-(4,5-dibromo-1H-pyrrole-2-carboxamido)-4-((5-hydroxy-4-oxo-1,4-dihydropyridin-2-yl)methoxy)benzo[d]thiazole-6-carboxylic acid], the MIC in the assay on E. faecalis ATCC 29212, in the assay on E. coli ATCC 25922 and in the assay with S. aureus ATCC 29213 was over 64 µg/mL in each case.

`O=C(OCc1cc(=O)c(O)co1)c1ccc2nc(NC(=O)c3cc(Br)c(Br)[nH]3)sc2c1` [Example 39, (5-hydroxy-4-oxo-4H-pyran-2-yl)methyl 2-(4,5-dibromo-1H-pyrrole-2-carboxamido)benzo[d]thiazole-6-carboxylate]: 1400 ± 20 nM corresponded to half-maximal inhibition on E. coli DNA gyrase (IC50). In addition, the MIC in the assay on E. faecium ATCC 35667, in the assay with E. coli ATCC 25922 and with S. aureus ATCC 29213 was over 64 µg/mL each time.

For `O=C(OCc1cc(=O)c(O)c[nH]1)c1ccc2nc(NC(=O)c3cc(Br)c(Br)[nH]3)sc2c1` [Example 40, (5-hydroxy-4-oxo-1,4-dihydropyridin-2-yl)methyl 2-(4,5-dibromo-1H-pyrrole-2-carboxamido)benzo[d]thiazole-6-carboxylate], the half-inhibitory concentration (IC50) against E. coli DNA gyrase worked out at 1700 ± 360 nM. Besides, the MIC in the assay with E. faecium ATCC 35667, with E. coli ATCC 25922 and with S. aureus ATCC 29213 was over 64 µg/mL each time.

`Cc1[nH]c(C(=O)N(c2nc3ccc(C(=O)O)cc3s2)C(C)C)c(Cl)c1Cl` [Example 41, 2-(3,4-dichloro-N-isopropyl-5-methyl-1H-pyrrole-2-carboxamido)benzo[d]thiazole-6-carboxylic acid] gave an IC50 against E. coli DNA gyrase of 320 ± 70 nM. Also, the figures for the MIC in the assay with E. faecalis ATCC 29212, with E. coli ATCC 25922 and with S. aureus ATCC 29213 were 32 µg/mL (≈ 77.6 µM), at least 32 µg/mL and 32 µg/mL (≈ 77.6 µM), respectively.

In turn, `Cc1[nH]c(C(=O)N(c2nc3ccc(C(=O)O)cc3s2)C2CC2)c(Cl)c1Cl` [Example 42, 2-(3,4-dichloro-N-cyclopropyl-5-methyl-1H-pyrrole-2-carboxamido)benzo[d]thiazole-6-carboxylic acid] gave a 50% inhibitory concentration (IC50) at E. coli DNA gyrase of 24 ± 1 nM. For the same compound, the results for the MIC with E. faecalis ATCC 29212, in the assay on E. coli ATCC 25922 and with S. aureus ATCC 29213 were 0.25 µg/mL (≈ 0.609 µM), over 64 µg/mL and 2 µg/mL (≈ 4.87 µM), respectively.

On to `CCN(C(=O)c1[nH]c(C)c(Cl)c1Cl)c1nc2ccc(C(=O)O)cc2s1` [Example 43, 2-(3,4-dichloro-N-ethyl-5-methyl-1H-pyrrole-2-carboxamido)benzo[d]thiazole-6-carboxylic acid], for which the 50% inhibitory concentration (IC50) at E. coli DNA gyrase is 7.2 ± 2 nM. The MIC in the assay on E. faecalis ATCC 29212 is 0.13 µg/mL (≈ 0.326 µM); with E. coli ATCC 25922 it was 32 µg/mL (≈ 80.3 µM); in the assay on S. aureus ATCC 29213 it was 0.13 µg/mL (≈ 0.326 µM).

As for `Cc1[nH]c(C(=O)Nc2nc3ccc(C(=O)O)cc3s2)c(Cl)c1Br` [Example 45, 2-(4-bromo-3-chloro-5-methyl-1H-pyrrole-2-carboxamido) benzo[d]thiazole-6-carboxylic acid], the concentration for half-maximal inhibition (IC50) against E. coli DNA gyrase is under 5 nM. The figures for the MIC in the assay on E. faecalis ATCC 29212, with E. coli ATCC 25922 and with S. aureus ATCC 29213 were 0.0625 µg/mL (≈ 0.151 µM), over 64 µg/mL and 0.13 µg/mL (≈ 0.314 µM), respectively.
